Key:
MDA-MB-435 = test: panel of 60 human tumor cell lines, growth inhibition (Melanoma); settings: MDA-MB-435
HCT-15 = test: panel of 60 human tumor cell lines, growth inhibition (Colon Cancer); settings: HCT-15
SN12C = test: panel of 60 human tumor cell lines, growth inhibition (Renal Cancer)
HOP-92 = test: panel of 60 human tumor cell lines, growth inhibition (Non-Small Cell Lung Cancer); settings: HOP-92
NCI-H226 = test: as above; settings: NCI-H226
M14 = test: panel of 60 human tumor cell lines, growth inhibition (Melanoma); settings: M14
NCI-H522 = test: panel of 60 human tumor cell lines, growth inhibition (Non-Small Cell Lung Cancer); settings: NCI-H522
PC-3 = test: panel of 60 human tumor cell lines, growth inhibition (Prostate Cancer); settings: PC-3
COLO 205 = test: panel of 60 human tumor cell lines, growth inhibition (Colon Cancer); settings: COLO 205

## C=C1C(=O)O[C@H]2[C@H]1CC/C(COC(=O)N1CCN(C)CC1)=C\CC[C@@]1(C)O[C@@H]21 [JVM 2-44]
MDA-MB-435
  GI50: 7.64 µM
  TGI: 2.27E−5
MDA-MB-435; Log10 Concentration −4.0
  Mean Optical Densities: 0.109
  Percent Growth: −80%
MDA-MB-435; Log10 Concentration −5.0
  Mean Optical Densities: 1.343
  Percent Growth: 44%
MDA-MB-435; Log10 Concentration −6.0
  Mean Optical Densities: 2.253
  Percent Growth: 94%
MDA-MB-435; Log10 Concentration −7.0
  Mean Optical Densities: 2.240
  Percent Growth: 93%
MDA-MB-435; Log10 Concentration −8.0
  Mean Optical Densities: 2.396
  Percent Growth: 102%
HCT-15
  GI50: 3.01 µM
  TGI: 1.42E−5
HCT-15; Log10 Concentration −4.0
  Mean Optical Densities: 0.108
  Percent Growth: −71%
HCT-15; Log10 Concentration −5.0
  Mean Optical Densities: 0.643
  Percent Growth: 13%
HCT-15; Log10 Concentration −6.0
  Mean Optical Densities: 2.210
  Percent Growth: 84%
HCT-15; Log10 Concentration −7.0
  Mean Optical Densities: 2.370
  Percent Growth: 92%
HCT-15; Log10 Concentration −8.0
  Mean Optical Densities: 2.435
  Percent Growth: 94%
SN12C
  GI50: 4.4 µM
  TGI: 2.80E−5
SN12C; Log10 Concentration −4.0
  Mean Optical Densities: 0.189
  Percent Growth: −64%
SN12C; Log10 Concentration −5.0
  Mean Optical Densities: 0.932
  Percent Growth: 28%
SN12C; Log10 Concentration −6.0
  Mean Optical Densities: 1.835
  Percent Growth: 90%
SN12C; Log10 Concentration −7.0
  Mean Optical Densities: 1.898
  Percent Growth: 94%
SN12C; Log10 Concentration −8.0
  Mean Optical Densities: 1.940
  Percent Growth: 97%
HOP-92
  GI50: 2.95 µM
  TGI: 1.48E−5
HOP-92; Log10 Concentration −4.0
  Mean Optical Densities: 0.116
  Percent Growth: −87%
HOP-92; Log10 Concentration −5.0
  Mean Optical Densities: 0.995
  Percent Growth: 18%
HOP-92; Log10 Concentration −6.0
  Mean Optical Densities: 1.307
  Percent Growth: 79%
HOP-92; Log10 Concentration −7.0
  Mean Optical Densities: 1.345
  Percent Growth: 86%
HOP-92; Log10 Concentration −8.0
  Mean Optical Densities: 1.394
  Percent Growth: 95%
NCI-H226
  GI50: 12.4 µM
  TGI: 3.73E−5
NCI-H226; Log10 Concentration −4.0
  Mean Optical Densities: 0.601
  Percent Growth: −45%
NCI-H226; Log10 Concentration −5.0
  Mean Optical Densities: 2.002
  Percent Growth: 60%
NCI-H226; Log10 Concentration −6.0
  Mean Optical Densities: 2.540
  Percent Growth: 95%
NCI-H226; Log10 Concentration −7.0
  Mean Optical Densities: 2.533
  Percent Growth: 94%
NCI-H226; Log10 Concentration −8.0
  Mean Optical Densities: 2.561
  Percent Growth: 96%
M14
  GI50: 8.89 µM
  TGI: 2.58E−5
M14; Log10 Concentration −4.0
  Mean Optical Densities: 0.178
  Percent Growth: −68%
M14; Log10 Concentration −5.0
  Mean Optical Densities: 1.229
  Percent Growth: 48%
M14; Log10 Concentration −6.0
  Mean Optical Densities: 1.877
  Percent Growth: 94%
M14; Log10 Concentration −7.0
  Mean Optical Densities: 1.848
  Percent Growth: 91%
M14; Log10 Concentration −8.0
  Mean Optical Densities: 1.953
  Percent Growth: 99%
NCI-H522
  GI50: 1.54 µM
  TGI: 3.55E−5
NCI-H522; Log10 Concentration −4.0
  Mean Optical Densities: 0.194
  Percent Growth: −78%
NCI-H522; Log10 Concentration −5.0
  Mean Optical Densities: 0.338
  Percent Growth: −62%
NCI-H522; Log10 Concentration −6.0
  Mean Optical Densities: 1.747
  Percent Growth: 76%
NCI-H522; Log10 Concentration −7.0
  Mean Optical Densities: 1.925
  Percent Growth: 92%
NCI-H522; Log10 Concentration −8.0
  Mean Optical Densities: 1.900
  Percent Growth: 89%
PC-3
  GI50: 21.8 µM
  TGI: 4.89E−5
PC-3; Log10 Concentration −4.0
  Mean Optical Densities: 0.340
  Percent Growth: −44%
PC-3; Log10 Concentration −5.0
  Mean Optical Densities: 1.854
  Percent Growth: 98%
PC-3; Log10 Concentration −6.0
  Mean Optical Densities: 1.917
  Percent Growth: 103%
PC-3; Log10 Concentration −7.0
  Mean Optical Densities: 1.899
  Percent Growth: 102%
PC-3; Log10 Concentration −8.0
  Mean Optical Densities: 1.916
  Percent Growth: 103%
COLO 205
  GI50: 4.44 µM
  TGI: 1.76E−5
COLO 205; Log10 Concentration −4.0
  Mean Optical Densities: 0.159
  Percent Growth: −67%
COLO 205; Log10 Concentration −5.0
  Mean Optical Densities: 0.767
  Percent Growth: 22%
COLO 205; Log10 Concentration −6.0
  Mean Optical Densities: 1.790
  Percent Growth: 101%
COLO 205; Log10 Concentration −7.0
  Mean Optical Densities: 1.715
  Percent Growth: 95%
COLO 205; Log10 Concentration −8.0
  Mean Optical Densities: 1.784
  Percent Growth: 100%

— patent publication US9469650B2, “Melampomagnolide B derivatives” (BOARD OF TRUSTEES OF THE UNIVERSITY OF ARKANSAS, priority 2013, dated 2016)
